Drawing on a melting point compilation (Tetko et al.; mined from patent text by program, amines drawn as free bases though some values may be those of a salt), this text covers melting point for 87 compounds.

By melting point is commonly meant the temperature of the solid-liquid transition. Compound `CC(Br)C(C)N1C(=O)C2(OCCCO2)c2cc(S(=O)(=O)N3CCCC3)ccc21` (configuration not stated) had a melting point of 152 to 153 °C.
In the case of `CS(=O)(=O)c1ccc(Oc2ccc(C#N)cc2)nc1`, the melting point lay in the range of 195 to 196 °C.
For `CCCc1c(/C=C/c2ccccc2C)nc2ccc(C(=O)OC)cn2c1=O` the value was 190 to 193 °C; for `O=C(O)C(Cl)=C(Cl)C(=O)N(CCCl)CCCl`, 107 to 110 °C.
The compound `CC(=O)NCCc1c[nH]c2ccc(OC(=O)Oc3ccc([N+](=O)[O-])cc3)cc12` came in with a melting point of 153 to 156 °C.
Consider `CC(C)(C)OC(=O)Nc1cc(CO)c(I)cc1[N+](=O)[O-]`, for which the melting point was greater than 250 °C.
For `O=c1[nH]c2c(cc1-c1nc(-c3ccccc3)no1)CN(Cc1ccccc1)CC2` the value was 231 to 233 °C; for `CCNC(=O)c1c(Cl)cccc1[Si](C)(C)CC`, 94 to 95 °C.
Compound `COC(=O)c1cc(Cl)c(Cl)c(-c2cc(C)no2)c1C` had a melting point of 76 to 77 °C.
For `Cn1cc(Oc2ccc(Cl)cc2)c(=O)c(-c2cccc(C(F)(F)F)c2)c1` the value was 90 to 91 °C.
Turning to `O=C(NCCSc1ccncc1)c1ccccc1CO`, the melting point was in the range of 132 to 133 °C.
The compound `Cc1c(NC(=O)c2ccc(OC[C@@H]3CCCO3)cc2)ccc2cc(CNC3CCCC3)[nH]c12` came in with a melting point of 159 to 163 °C.
For `COC(=O)c1cocc1-n1c(OC)nn(C)c1=O` the value was 131 to 133 °C; for `CCc1nc(N)nc(N)c1CCC(C)c1ccc(C(F)(F)F)cc1` (configuration not stated), 48 to 55 °C; for `CC1=CC(=C(CC(C)CC(C)(C)C)c2cc(C)cc(C)c2OCc2ccccc2)C(O)C(C)=C1` (configuration not stated), 125 to 126 °C.
Turning to `Cc1c(CO)nc2c(OCc3ccccc3)cccn12`, the melting point was in the range of 172 to 175 °C.
Compound `Cc1cc(NC(=O)C(C)(O)COc2ccc(CCCCl)cc2)ccc1[N+](=O)[O-]` (configuration not stated) had a melting point of 110 to 112 °C.
The same measure for `C#CCN(Cc1cc2c(=O)n(CCN(C)C)c(CN3CCCCC3)nc2cc1Cl)c1ccc(C(=O)OC(C)(C)C)cc1`: 75 to 77 °C.
For `O=C1c2c(Cl)cccc2-c2cc(O)cc3cccc1c23` the value was 308 to 312 °C; for `[O-][N+](=Cc1ccccc1)CCCCCC[N+]([O-])=Cc1ccccc1`, 105 °C.
The same measure for `CCn1c(=O)c2[nH]c(/C=C/c3ccc(OC)c(C)c3C)nc2n(CC)c1=O`: greater than 280 °C.
Compound `CN(C)C(=O)c1c2ccc(Cl)cc2c(-c2ccccc2)n1C` gave a melting point of 86 to 88 °C.
The same measure for `CCOCn1nccc1C(O)c1ccc(O)c(Cl)c1Cl` (configuration not stated): 150 °C.
`CCOCC1=C(C(=O)OCC)C(c2cccc([N+](=O)[O-])c2)C(C(=O)OCC)=C(C)N1` (configuration not stated) had a melting point of 120 to 122 °C.
Consider `CC(C)CNc1nc2cc(Cl)c(Cl)cc2n1[C@H]1O[C@@H](CO)[C@H](O)[C@@H]1O`, for which the melting point was found to be 136 °C.
The compound `O=C(O)CCC(=NO)c1ccc(-c2cccc(F)c2)cc1` returned a melting point of 155 to 157 °C.
`CS(=O)c1nsc(Cl)n1` (configuration not stated) yielded a melting point of 72 °C.
The compound `OCc1cn(C(c2ccccc2)(c2ccccc2)c2ccccc2)nn1` had a melting point of 200 to 201 °C.
Consider `COC(=O)C1Oc2ccc(Cl)cc2C(c2ccccc2)(c2ccccc2)O1` (configuration not stated), for which the melting point amounted to 172 °C.
Consider `CC1(C(=O)O)COC2(CC3CCC2(C)C3(C)C)OC1` (configuration not stated), for which the melting point fell in the range of 172 to 175 °C.
For the compound `COc1ccc2c(=O)[nH]c(-c3cc(C)c(OCCN4CCCC4)c(C)c3)nc2c1`, the melting point was 218 to 220 °C.
The same measure for `C1CN2CCN3CCN(CCN1)P23`: 109 to 111 °C; for `CC(Nc1cc(Br)ccc1OCc1ccccc1)c1ccc(C(=O)O)cc1` (configuration not stated): 186 to 187 °C; for `Cc1ccc2cc(NC(=O)c3cccc(SCc4cnccn4)c3)ccc2n1`: 102 to 105 °C.
Consider `O=S(=O)(c1ccc(-c2ccc(C3COC(c4c(F)cccc4F)=N3)cc2)cc1)C(F)F` (configuration not stated), for which the melting point is 107 to 111 °C.
On to `CC(C)NC(=O)c1nc(-c2ccccc2)c(-c2ccc(=O)n(C(C)C)n2)s1`, for which the melting point lay within 131 to 132 °C.
For `Nc1nc2c(ncn2OC(CO)COCP(=O)(O)O)c(=O)[nH]1` (configuration not stated) the value was greater than 300 °C.
`COc1ccc(C(=O)Nc2ccc(C(=O)O)cc2)cc1C12CC3CC(CC(C3)C1)C2`: the melting point lay in the range of 286 to 287 °C.
`O=c1c2c(Cc3ccccc3C(F)(F)F)n[nH]c2c2cccnc2n1-c1cccc(OC(F)(F)F)c1`: the melting point lay in the range of 252 to 255 °C.
As for `O=C(Nc1ccc(-n2nc(C(F)(F)F)cc2-c2cccs2)cc1)c1ccncc1F`, the melting point is 153 to 155 °C.
For `CCC(CC)Oc1cc(C)nc2c1COCN2c1c(C)cc(Br)cc1C` the value was 206 to 209 °C; for `Cc1cc2cc(O)ccc2c(Oc2ccc(/C=C/C(=O)O)cc2)c1-c1ccc(O)cc1`, 162 to 164 °C.
For `CCCc1nc(C)n2nc(S)nc2c1Cc1ccc([N+](=O)[O-])cc1` the value was 210 °C; for `C[C@@H](C(=O)O)N(C)C(=O)c1cc(C(F)(F)F)cc(N)c1N`, 96 °C; for `Cc1c(NC(=O)c2ccc(CC(=O)C3CC3)cc2)ccc2cc(CN3CCCC3)cnc12`, 200 to 201 °C.
The compound `CCCC1CCC(=O)C=C1c1ccc(OCC(=O)O)c(Cl)c1Cl` (configuration not stated) returned a melting point of 177 to 178 °C.
The same measure for `C=CCNC1=NS(=O)(=O)c2cnccc2N1`: 206 to 208 °C; for `CC(C)N1CC(COc2ccc([N+](=O)[O-])c(C=O)c2)OC1=O` (configuration not stated): 94 to 97 °C; for `COc1ccc(Cl)c(Oc2c(NS(=O)(=O)c3ccc(C(C)C)cn3)ncnc2OCCOC(=O)Nc2ccccn2)c1`: 190 to 191 °C.
With `Cn1c(-c2ccccc2S(=O)c2nc3ccccc3[nH]2)nc2ccccc21` (configuration not stated), the melting point stood at 164 °C.
The compound `Cc1cccc(CC(NC(=O)C(c2ccccc2)c2ccccc2)C(=O)NC(C#N)CCOc2cccc(C(=O)O)c2)c1` (configuration not stated) gave a melting point of 169 to 170 °C.
The same measure for `CC(=Cc1ccccc1)c1ccc2c(c1)C(C)(C)CCC2(C)C`: 83 to 85 °C; for `COC(=O)C(=NOCF)c1ccccc1Oc1ncnc(Oc2ccccc2Cl)c1F`: 153 to 155 °C; for `O=C1c2c(O)ccc(O)c2C(=O)c2c(NCCN3CCCCC3CO)ccc(NCCN3CCCCC3CO)c21` (configuration not stated): 208 to 210 °C.
The same measure for `CCCCCCCCCCCCCCCCCCNC(=O)Nc1cccc([N+](=O)[O-])c1`: 102 to 104 °C; for `O=CC=CC(=C(c1ccc(F)cc1)c1ccc(F)cc1)n1cnnn1`: 152 to 154 °C; for `Cc1c(N)ccc2c(O)c(C(=O)NCc3ccc(Cl)cc3)cnc12`: 256 to 258 °C.
In the case of `COC(=O)c1ccc(OC)c(F)c1F`, the melting point is 66 to 68 °C.
For `BrCCC1c2ccccc2-c2ccccc21` the value was 48 to 49 °C.
`Clc1nnc(Cc2ccc(OCc3ccccc3)cc2)c2ccccc12` returned a melting point of 150 to 152 °C.
With `Cc1cccc(NC(=O)Nc2nnc(C(F)(F)F)s2)c1`, the melting point fell in the range of 255 to 257 °C.
As for `O=C(Nc1ccc2c(c1)C(F)(F)C(F)(F)O2)N1CC(c2ccccc2)=C(c2ccc(OC(F)F)cc2)N1`, the melting point was in the range of 155 to 159 °C.
The same measure for `COC(=O)c1ccccc1-c1ccc(CNc2nc(Cl)nc3ccccc23)cc1`: 75 to 90 °C; for `CCCCCCCCCCCCCCCCc1nc(N(C)C)nc(C)c1O`: 86 to 87 °C.
On to `Cn1c2cc(C#N)ccc2c2nc3ccccc3nc21`, for which the melting point was in the range of 284 to 287 °C.
As for `COC(=O)c1ccc(CN(Cc2cc(Br)ccc2OCc2ccccc2)c2ccc(C(=O)OC(C)(C)C)cc2)cc1`, the melting point fell in the range of 154 to 155 °C.
The same measure for `CC(C)(C)C(=O)OCOC(=O)Cn1c(=O)c2cc(Cl)ccc2n(Cc2ccc(Cl)c(Cl)c2)c1=O`: 124 to 126 °C; for `c1cnnc(N=C2SC[C@@H]3Cc4ccccc4CN23)c1`: 140 to 142 °C.
Compound `Cc1ccc(-c2c(-c3ccc(S(C)(=O)=O)cc3)cnn(-c3ccc(F)cc3)c2=O)cc1` yielded a melting point of 242 to 244 °C.
The same measure for `CCN(CC)c1ccc(S(=O)(=O)N2CCCC2=O)cc1`: 128 to 130 °C; for `C=Cc1cccc(-c2nc(CCOc3ccc(OC(C)(C)C(=O)O)cc3)c(C)o2)c1`: 137 to 139 °C.
The same measure for `COC(=O)c1ccc(OCCC2CCN(c3cc(Cl)nnc3Cl)CC2)cc1`: 115 to 117 °C; for `CC1CCCC(C)N1Cc1ccc(NC(=O)C#Cc2ccc(-c3ccc(Cl)cc3)cc2)cc1` (configuration not stated): 158 to 163 °C; for `CCOC(=O)c1cn(CC)c2cc(C(=O)C=CN(C)C)c(F)cc2c1=O`: 176 to 179 °C.
The same measure for `OC1COc2ccccc2C1` (configuration not stated): 188 to 193 °C; for `O=C1CCNc2c([N+](=O)[O-])cc(Cl)c(Cl)c21`: 175 to 176 °C.
Regarding `CCc1noc(-c2cn(-c3ccccn3)cn2)n1`, the melting point fell in the range of 162 to 163 °C.
`Cc1ccc2c(c1)c(-c1ccc(F)cc1)c(C)n2C1CCN(C)CC1` showed a melting point of 110 to 112 °C.
The same measure for `O=C1c2ccccc2-c2csc(N3C(=O)c4ccccc4C3=O)c21`: 197 to 199 °C.
For `O=C1NC(=O)C(Cc2ccc(N3CCC(NC[C@H](O)c4ccc5nnnn5c4)CC3)cc2)S1` (some centres not stated), the melting point lay within 130 to 132 °C.
For `COc1nc(C)c(C)nc1NC(=S)N1CCN(c2cccc(Br)c2)CC1` the value was 136 to 138 °C; for `CC(=O)c1c(C)c(NC(=O)CC(C)(C)C)c(C)c2c1SCC2c1ccc(C(C)C)cc1` (configuration not stated), 218 to 219 °C; for `CCCC(=O)c1cc2c(=O)c(C(=O)O)c[nH]c2cc1C`, 249 to 252 °C.
The same measure for `CC(=O)C(C(C)=O)[C@@H]1NC(=O)[C@@H]1C(C)(C)O`: 109 to 110 °C; for `CO[C@@H](Cc1ccc(C#CCOc2ccc(-c3ccccc3)cc2)cc1)C(=O)O`: 111 to 112 °C.
For `COc1ccccc1-n1c(=O)[nH]c2c(C(N)=O)nc(NC[C@H]3CCCN3)nc21` the value was 155 to 157 °C; for `OC(CSc1ncccn1)CN1CCN(C(c2ccc(F)cc2)c2ccc(F)cc2)CC1` (configuration not stated), 75 to 76 °C.
